Tested on: AP-1 induced transcriptional activity
Assay: Cellular Transrepressional Assay: AP-1 luciferase reporter in PMA-activated A549 cells
Assay type: cell-based
Conditions: for Emax: A549, 7 h, read-out: AP-1 Max % inh (Cellular Transrepression Assay)
Procedure: Cellular Transrepressional Assay
To measure the ability of test molecules to inhibit AP-1 induced transcriptional activity we utilized an A549 cell which was stably transfected with a plasmid containing 7× AP-1 DNA binding sites (pAP-1-Luc plasmid, Stratagene Co. La Jolla, Calif.) followed by the gene for luciferase. Cells were activated with 10 ng/ml of […] (PMA) plus or minus test molecules for 7 hours. After 7 hours a luciferase reagent was added to measure luciferase enzymatic activity in the cell. After a 10 minute incubation of luciferase reagent with cells, luminescence was measured in a TopCount luminescence counter. Repression of AP-1 activity was calculated as the percentage decrease in the signal induced by PMA alone. Test molecules were analyzed in the concentration range from 0.1 nM to 40 μM. EC50s were determined by using standard curve fitting methods such as Excel fit (Microsoft Co.).

[1] = Homo sapiens, maximum inhibition, Cellular Transrepression Assay
[2] = Homo sapiens, A549, Cellular Transrepression Assay

Row | EC50 [2] | EC50 (Cellular Transrepression Assay) | Compound | Emax [1] | AP-1 Max % inh (Cellular Transrepression Assay) (maximum inhibition, Cellular Transrepression Assay)
1 | 158 nM | – | CC(C)(C(=O)Nc1nc(Cc2ccc(-c3ccncc3)cc2)cs1)[C@@H](c1ccccc1)c1ccc(O)cc1 [Example 354, 3-(4-hydroxyphenyl)-2,2-dimethyl-3-phenyl-N-(4-((4-(4-pyridinyl)phenyl)methyl)-1,3-thiazol-2-yl)propanamide] | 71.8% | –
2 | 736 nM | – | CC(C)(C(=O)Nc1nc(Cc2ccc(-c3ccncc3)cc2)cs1)C(c1ccc(O)cc1)c1ccc(O)cc1 [Example 356] | 61.1% | –
3 | 20 nM | – | CC(C)(C(=O)Nc1nccs1)[C@@H](c1ccccc1)c1ccc(OC(=O)C2CCCO2)cc1 (stereo partly drawn) [Example 366, 4-((1S)-2,2-dimethyl-3-oxo-1-phenyl-3-(1,3-thiazol-2-ylamino)propyl)phenyl tetrahydro-2-furancarboxylate] | 32.6% | –
4 | 227 nM | – | CC(C)Cc1ccc(-c2ccc(C(CC(C)C)C(C)(C)C(=O)Nc3nccs3)cc2)cc1 (stereo not drawn) [Example 396, 2,2,5-trimethyl-3-(4′-(2-methylpropyl)-4-biphenylyl)-N-1,3-thiazol-2-ylhexanamide] | 31.5% | –
5 | 2.7 nM | – | CC(C)c1ccc(-c2ccc(C(c3ccccc3)C(C)(C)C(=O)Nc3nncs3)cc2)cc1 (stereo not drawn) [Example 422, 3-(4′-isopropyl-4-biphenylyl)-2,2-dimethyl-3-phenyl-N-1,3,4-thiadiazol-2-ylpropanamide] | 33.7% | –
6 | 9.57 nM | – | CC(C)(C(=O)Nc1nncs1)C(c1ccccc1)c1ccc(-c2ccc(-c3ccccc3)cc2)cc1 (stereo not drawn) [Example 404, 2,2-dimethyl-3-phenyl-3-(1,1′:4′,1″- terphenyl-4-yl)-N-1,3,4-thiadiazol-2-ylpropanamide] | 21.9% | –
7 | 13.3 nM | – | CC(=O)Oc1ccc([C@H](c2ccccc2)C(C)(C)C(=O)Nc2nccs2)cc1 [Example 361, 4-((1S)-2,2-dimethyl-3-oxo-1-phenyl-3-(1,3-thiazol-2-ylamino)propyl)phenyl acetate] | 36.4% | –
8 | 14.9 nM | – | CCc1ccc(-c2ccc(C(c3ccccc3)C(C)(C)C(=O)Nc3nncs3)cc2)cc1 (stereo not drawn) [Example 407, 3-(4′-ethyl-4-biphenylyl)-2,2-dimethyl-3-phenyl-N-1,3,4-thiadiazol-2-ylpropanamide] | 37.5% | –
9 | 14.5 nM | – | CC(C)(C)NC(=O)c1ccc(-c2ccc(C(c3ccccc3)C(C)(C)C(=O)Nc3nncs3)cc2)cc1 (stereo not drawn) [Example 424, N-tert-butyl-4′-(2,2-dimethyl-3-oxo-1-phenyl-3-(1,3,4-thiadiazol-2-ylamino)propyl)-4-biphenylcarboxamide] | 26.4% | –
10 | 3.03 nM | – | CC(C)(C(=O)Nc1nncs1)C(c1ccccc1)c1ccc(-c2ccc(Cl)cc2)cc1 (stereo not drawn) [Example 403, 3-(4′-chloro-4-biphenylyl)-2,2-dimethyl-3-phenyl-N-1,3,4-thiadiazol-2-ylpropanamide] | 24.9% | –
11 | 39.8 nM | – | COCc1ccc(-c2ccc(C(c3ccccc3)C(C)(C)C(=O)Nc3nncs3)cc2)cc1 (stereo not drawn) [Example 408, 3-(4′-(methoxymethyl)-4-biphenylyl)-2,2-dimethyl-3-phenyl-N-1,3,4-thiadiazol-2-ylpropanamide] | 24.9% | –

Continued, compound first:

Row | Compound | EC50 [2] | EC50 (Cellular Transrepression Assay) | Emax [1] | AP-1 Max % inh (Cellular Transrepression Assay) (maximum inhibition, Cellular Transrepression Assay)
12 | Cc1cnc(NC(=O)C(C)(C)C(c2ccccc2)c2cccc(O)c2)s1 (stereo not drawn) [Example 199, 3-(3-hydroxyphenyl)-2,2-dimethyl-N-(5-methyl-1,3-thiazol-2-yl)-3-phenylpropanamide] | – | – | 31.1% | –
13 | CC(C)(C(=O)Nc1nc(Cc2ccc(-c3ccncc3)cc2)cs1)C(c1ccccc1)c1ccc(O)cc1 (stereo not drawn) [Example 353, 3-(4-hydroxyphenyl)-2,2-dimethyl-3-phenyl-N-(4-((4-(4-pyridinyl)phenyl)methyl)-1,3-thiazol-2-yl)propanamide] | 100 nM | – | 77.8% | –
14 | COc1cccc(C(c2ccccc2)C(C)(C)C(=O)Nc2nc(C)c(C)s2)c1 (stereo not drawn) [Example 94, N-(4,5-dimethyl-1,3-thiazol-2-yl)-2,2-dimethyl-3-(3-(methyloxy)phenyl)-3-phenylpropanamide] | – | – | 35.4% | –
15 | CC(C)(C(=O)Nc1nccs1)[C@H](c1ccccc1)c1ccc(N2CCOCC2)cc1 (stereo in doubt) [Example 258, 2,2-dimethyl-3-(4-(4-morpholinyl)phenyl)-3-phenyl-N-1,3-thiazol-2-ylpropanamide] | 10.5 nM | – | 42.7% | –
16 | CC(C)(C(=O)Nc1nc(-c2ccnc3ccccc23)cs1)C(c1ccccc1)c1ccccc1 [Example 184, 2,2-dimethyl-3,3-diphenyl-N-(4-(4-quinolinyl)-1,3-thiazol-2-yl)propanamide] | – | – | 57.5% | –
17 | COc1ccc(Cc2csc(NC(=O)C(C)(C)C(c3ccccc3)c3ccc(O)cc3)n2)cc1 (stereo not drawn) [Example 352] | 118 nM | – | 61.7% | –
18 | COc1ccc(C(c2ccccc2)C(C)(C)C(=O)Nc2ncc(C)s2)cc1 (stereo not drawn) [Example 105, 2,2-dimethyl-3-(4-(methyloxy)phenyl)-N-(5-methyl-1,3-thiazol-2-yl)-3-phenylpropanamide] | – | – | 22.1% | –
19 | CC(C)(C(=O)Nc1nccs1)C(c1ccccc1)c1ccc(O)c(F)c1 (stereo not drawn) [Example 347, 3-(3-fluoro-4-hydroxyphenyl)-2,2-dimethyl-3-phenyl-N-1,3-thiazol-2-ylpropanamide] | – | 10.8 nM | – | 55.26%
20 | CC(C)(C(=O)Nc1nc(-c2ccc(F)cc2)cs1)C(c1ccccc1)c1ccccc1 [Example 168, N-(4-(4-fluorophenyl)-1,3-thiazol-2-yl)-2,2-dimethyl-3,3-diphenylpropanamide] | – | – | 23% | –
21 | CC(C)(C(=O)Nc1nncs1)C(c1ccc(N2CCOCC2)cc1)c1cccc(F)c1 (stereo not drawn) [Example 229, 3-(3-fluorophenyl)-2,2-dimethyl-3-(4-(4-morpholinyl)phenyl)-N-1,3,4-thiadiazol-2-ylpropanamide] | 18.6 nM | – | 44.2% | –
22 | CC(C)(C(=O)Nc1nccs1)C(c1ccccc1)c1ccc(O)cc1 (stereo not drawn) [Example 209, 3-(4-hydroxyphenyl)-2,2-dimethyl-3-phenyl-N-1,3-thiazol-2-ylpropanamide] | 86.5 nM | – | 46.9% | –
23 | CCOC(=O)c1csc(NC(=O)C(C)(C)[C@H](c2ccccc2)c2ccc(OC)cc2)n1 [Example 264, ethyl 2-((2,2-dimethyl-3-(4-(methyloxy)phenyl)-3-phenylpropanoyl)amino)-1,3-thiazole-4-carboxylate] | 772 nM | – | 58.6% | –
24 | CC(C)(C(=O)Nc1nncs1)[C@@H](c1ccccc1)c1ccc(O)cc1 [Example 339, (3S)-3-(4-hydroxyphenyl)-2,2-dimethyl-3-phenyl-N-1,3,4-thiadiazol-2-ylpropanamide] | 30.5 nM | – | 60.8% | –
25 | COc1ccc(C(c2ccccc2)C(C)(C)C(=O)Nc2nc(CCc3ccccc3)cs2)cc1 (stereo not drawn) [Example 109, 2,2-dimethyl-3-(4-(methyloxy)phenyl)-3-phenyl-N-(4-(2-phenylethyl)-1,3-thiazol-2-yl)propanamide] | – | – | 22.6% | –
26 | CC(C)(c1ccccc1)c1csc(NC(=O)C(C)(C)C(c2ccccc2)c2ccccc2)n1 [Example 181, 2,2-dimethyl-N-(4-(1-methyl-1-phenylethyl)-1,3-thiazol-2-yl)-3,3-diphenylpropanamide] | – | – | 28.9% | –
27 | CC(C)(C(=O)Nc1nc(Cc2ccc(-c3ccncc3)cc2)cs1)C(c1ccccc1)c1ccccc1 [Example 299, 2,2-dimethyl-3,3-diphenyl-N-(4-((4-(4-pyridinyl)phenyl)methyl)-1,3-thiazol-2-yl)propanamide] | 13.3 nM | – | 69.3% | –
28 | CC(C)(C(=O)Nc1nccs1)[C@@H](c1ccccc1)c1ccc(O)cc1 [Example 325, (3S)-3-(4-hydroxyphenyl)-2,2-dimethyl-3-phenyl-N-1,3-thiazol-2-ylpropanamide] | 53.9 nM | – | 57.8% | –
29 | CC(C)(C(=O)Nc1nncs1)C(c1ccc(N2CCOCC2)cc1)c1cccc(F)c1 (single isomer, unassigned) [Example 255, 3-(3-fluroophenyl)-2,2-dimethyl-3-(4-(4-morpholinyl)phenyl)-N-1,3,4-thiadiazol-2-ylpropanamide] | 10.2 nM | – | 43% | –
30 | O=C(Nc1nccs1)C1(C(c2ccccc2)c2ccccc2)CCCC1 [Example 162, 1-(diphenylmethyl)-N-1,3-thiazol-2-ylcyclopentanecarboxamide] | – | – | 22.8% | –
31 | COc1ccc(C(c2ccccc2)C(C)(C)C(=O)Nc2nc(C)c(C)s2)cc1 (stereo not drawn) [Example 106, N-(4,5-dimethyl-1,3-thiazol-2-yl)-2,2-dimethyl-3-(4-(methyloxy)phenyl)-3-phenylpropanamide] | – | – | 35.9% | –
32 | COc1ccc2c(-c3csc(NC(=O)C(C)(C)C(c4ccccc4)c4ccccc4)n3)cccc2c1 [Example 166, 2,2-dimethyl-N-(4-(6-(methyloxy)-1-naphthalenyl)-1,3-thiazol-2-yl)-3,3-diphenylpropanamide] | 950 nM | – | 62.3% | –
33 | CC(C)(C(=O)NC1CCCC1)[C@@H](c1ccccc1)c1ccc(O)cc1 [Example 335, (3S)-N-cyclopentyl-3-(4-hydroxyphenyl)-2,2-dimethyl-3-phenylpropanamide] | 9.32 nM | – | 21.2% | –
34 | CC(C)(C(=O)Nc1nncs1)[C@@H](c1ccccc1)c1ccc(O)c(Br)c1 [Example 351, (3S)-3-(3-bromo-4-hydroxyphenyl)-2,2-dimethyl-3-phenyl-N-1,3,4-thiadiazol-2-ylpropanamide] | 16.4 nM | – | 66% | –
35 | CCOC(=O)c1sc(NC(=O)C(C)(C)C(c2ccccc2)c2ccc(OC)cc2)nc1C (stereo not drawn) [Example 112, ethyl 2-((2,2-dimethyl-3-(4-(methyloxy)phenyl)-3-phenylpropanoyl)amino)-4-methyl-1,3-thiazole-5-carboxylate] | – | – | 20.9% | –
